From ChEMBL document CHEMBL4177704, “Synthesis and biological evaluation of water-soluble derivatives of chiral gossypol as HIV fusion inhibitors targeting gp41” (Bioorg Med Chem Lett, 2018)
Where “and” joins values, the source holds several entries; their conditions need not be identical. Equal values may be shown once.

How the values were obtained:
[1] = molecular target: Envelope glycoprotein gp160 (Human immunodeficiency virus 1, UniProt Q6QLK5); assay: Inhibition of HIV gp41 6-helix bundle formation preincubated with C34 and N36 for 30 mins
Chain of Envelope glycoprotein gp160 (Q6QLK5 whole entry): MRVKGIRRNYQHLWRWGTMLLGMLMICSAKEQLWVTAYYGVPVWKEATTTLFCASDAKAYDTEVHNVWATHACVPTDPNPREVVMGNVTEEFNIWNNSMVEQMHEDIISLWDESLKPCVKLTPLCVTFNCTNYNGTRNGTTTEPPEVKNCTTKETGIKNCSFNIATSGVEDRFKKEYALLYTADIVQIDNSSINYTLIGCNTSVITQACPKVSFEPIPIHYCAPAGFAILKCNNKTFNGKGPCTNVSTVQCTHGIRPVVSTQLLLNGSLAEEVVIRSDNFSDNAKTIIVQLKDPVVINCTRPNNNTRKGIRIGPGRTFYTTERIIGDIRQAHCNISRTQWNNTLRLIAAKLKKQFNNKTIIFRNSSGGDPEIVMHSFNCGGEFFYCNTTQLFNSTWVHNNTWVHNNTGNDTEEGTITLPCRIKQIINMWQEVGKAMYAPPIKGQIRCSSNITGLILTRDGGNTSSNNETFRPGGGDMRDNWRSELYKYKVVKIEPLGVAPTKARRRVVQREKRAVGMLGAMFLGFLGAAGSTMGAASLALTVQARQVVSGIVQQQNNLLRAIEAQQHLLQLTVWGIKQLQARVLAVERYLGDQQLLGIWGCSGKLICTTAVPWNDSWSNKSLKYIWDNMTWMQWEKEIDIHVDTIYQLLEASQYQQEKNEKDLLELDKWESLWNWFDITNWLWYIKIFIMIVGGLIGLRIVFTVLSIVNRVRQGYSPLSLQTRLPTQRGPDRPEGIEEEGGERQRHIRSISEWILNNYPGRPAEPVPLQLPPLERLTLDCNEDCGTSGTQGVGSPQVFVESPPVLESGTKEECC

[2] = Selectivity index, ratio of CC50 for human TZM-bl cells to IC50 for HIV-1 3B infected in human TZM-bl cells; assay type: toxicity, cell-based
[3] = tested on: Human immunodeficiency virus 1; assay: Antiviral activity against X4R5 tropic HIV-1 93TH051 expressing Env subtype E infected in human PBMC assessed as reduction in p24 expression levels after 4 days by ELISA; assay type: functional, organism-based; conditions: Human immunodeficiency virus 1, 93TH051, PBMC, 96 h
[4] = tested on: Human immunodeficiency virus 1; assay: Antiviral activity against HIV-1 3B infected in human TZM-bl cells treated for 2 hrs followed by compound washout measured after 2 days by luciferase reporter assay; assay type: functional, organism-based
[5] = Spermicidal activity against mouse sperm assessed as motility of sperm at 100 uM after 1 hr by hemocytometric analysis; assay type: ADME
[6] = tested on: TZM; assay: Cytotoxicity against human TZM-bl cells after 72 hrs by MTT assay; assay type: cell-based; conditions: tzm, 72 h

| Compound | IC50 [1] | Ratio CC50/IC50 [2] | IC50 [3] | IC50 [4] | Activity [5] | CC50 [6] | selectivity ratio ([2]; TZM-bl cells, read-out: Ratio CC50/IC50) |
| --- | --- | --- | --- | --- | --- | --- | --- |
| Cc1cc2c(c(O)c1-c1c(C)cc3c(c1O)/C(=C/NC(C)C(=O)NC(C)C(=O)[O-])C(=O)C(O)=C3C(C)C)/C(=C/NC(C)C(=O)NC(C)C(=O)[O-])C(=O)C(O)=C2C(C)C.[Na+].[Na+] (single isomer, unassigned; (-)) | 7.87 µM | 24.99 | 1.72 µM | 1.43 µM | Non-Toxic | 35.7 µM |  |
| Cc1cc2c(c(O)c1-c1c(C)cc3c(c1O)/C(=C/NC(C)S(=O)(=O)[O-])C(=O)C(O)=C3C(C)C)/C(=C/NC(C)S(=O)(=O)[O-])C(=O)C(O)=C2C(C)C.[Na+].[Na+] (single isomer, unassigned; (-)) | 7.34 µM |  | 1.56 µM | 1.17 µM | Non-Toxic | 37.8 µM | 32.3 |
| Cc1cc2c(c(O)c1-c1c(C)cc3c(c1O)/C(=C/N[C@@H]1[C@@H](O)[C@H](O)[C@@H](CO)O[C@H]1O)C(=O)C(O)=C3C(C)C)/C(=C/N[C@@H]1[C@@H](O)[C@H](O)[C@@H](CO)O[C@H]1O)C(=O)C(O)=C2C(C)C (stereo in doubt; (-)-1a) | 6.36 µM | 32.12 | 1.22 µM | 0.72 µM | Non-Toxic | 23.1 µM |  |
| Cc1cc2c(C(C)C)c(O)c(O)c(C=O)c2c(O)c1-c1c(C)cc2c(C(C)C)c(O)c(O)c(C=O)c2c1O [GOSSYPOL] |  |  |  |  | Toxic | 18.1 µM and 5.22 µM |  |
